Assay [1] relates to amnesia induced by the injection of vincristine. In words: Evaluation test of the social memory in the rat after lesions caused by injection of vincristine. Conditions: vincristine-lesioned rats. The class given is in vivo. Here is the method: In this model, the effects are evaluated of the products tested on amnesia induced by the injection of vincristine which induces biochemical alterations similar to the changes present in Alzheimer's disease.
The procedures used in this model, lesions caused by vincristine as well as the evaluation of the social memory are described in EP 655247.
Evaluation Test of the Social Memory in the Rat.
The dose of 1 mg/kg i.p. of tacrine is then administered to the two groups of rats.

Assay [2] has the same test system. Conditions: vincristine-lesioned rats; as described in EP 655247; cited from earlier work.

This is an account of results in US20050148614A1 (priority 1997, published 2005).

Take `Cl.FC(F)(F)c1cccc(C2=CCN(CCc3ccc4ccccc4c3)CC2)c1` [SR 57746A, 1-(2-naphth-2-ylethyl)-4-(3-trifluoromethylphenyl)-1,2,3,6-tetrahydropyridine hydrochloride]: the “functional recovery in terms of memory” value in assay [1] (SR 57746A alone at 5 mg/kg p.o.) was “insufficient to permit functional recovery in terms of memory”. Besides, the “efficacious dose (functional recovery of memory)” value in assay [2] is reported as 10 mg/kg. Regarding `Nc1c2c(nc3ccccc13)CCCC2` [tacrine, reference compound], in assay [1] (solvent then tacrine 1 mg/kg i.p. (control group)), the recovery of memory entry is on record as “no recovery of memory”.
